# Test results: patent US20260041679A1, “METHOD OF TREATING HYPERTENSION WITH THE ALDOSTERONE SYNTHASE INHIBITOR BAXDROSTAT” (CINCOR PHARMA, INC., priority 2022, published 2026)
# “And” between values parts separate entries of the source, which are not always exact repeats. Equal values may be shown once.
# Experiments:
# [1] = Absorption, metabolism and excretion of [14C]-baxdrostat (Example 7); assay type: in vivo, human
# Protocol: Eight male subjects each received a single oral 10 mg (containing approximately 100 uCi) dose of baxdrostat. Blood, urine and fecal samples were collected to determine the metabolic and excretion pathways of baxdrostat. Preliminary findings indicate that the mean excretion of radioactivity was 69.4% and 15.3%, of the dose in the urine and feces, respectively. Unchanged baxdrostat was the major component in urine and feces, constituting 16.8% and 6.1% of the dose, respectively.
# [2] = system: patients with rHTN; test: Study 121: seated blood pressure in patients with resistant hypertension (Example 8); assay type: in vivo, human; settings: for DBP decrease: after 12 weeks
# From the text: This study was a randomized, double-blind, placebo-controlled study to evaluate the efficacy and safety of baxdrostat in patients with rHTN. Patients with rHTN were defined as being on a stable regimen of ≥3 antihypertensive agents, one of which is a diuretic with a mean seated blood pressure (BP)≥130/80 mmHg. […] The secondary objectives were to evaluate the change from baseline in mean seated DBP with each of the selected dose strengths of baxdrostat compared to placebo and to evaluate the percentage of patients achieving a seated BP response<130/80 mmHg with each of the dose strengths of baxdrostat compared to placebo after 12 weeks of treatment. […] The study was planned to enroll 348 patients.
# The primary endpoint was the placebo-adjusted change from baseline to week 12 of the mean office SBP. The secondary endpoints included the placebo-adjusted change from baseline to week 12 in seated office DBP, and the percentage of patients achieving a seated BP response<130/80 mmHg with each of the selected dose strengths of baxdrostat compared to placebo after 12 weeks of treatment for rHTN.
# The point estimates for the main treatment effect and for the secondary endpoints were generated by mixed model analyses of covariance that included responder status as a fixed effect. […] The change from baseline in mean seated SBP will be analyzed using a mixed model for repeated measures (MMRM) model. The analysis includes fixed effects for treatment, visit, and treatment-by-visit interaction, along with covariates of the baseline mean seated SBP and baseline glomerular filtration rate. The restricted maximum likelihood estimation (REML) approach was used with an unstructured covariance matrix.
# [3] = target: T1, aldosterone synthase (Homo sapiens, UniProt P19099); test: Study 121: pharmacodynamics, serum and 24-hour urine aldosterone, plasma renin activity, serum cortisol; assay type: in vivo
# T1 construct: Pharmacodynamic measurements included plasma aldosterone, cortisol, and electrolytes; endogenous in cells; host or cells: human subjects in vivo (healthy volunteers; resistant hypertension patients)
# T1 sequence (P19099 25-503): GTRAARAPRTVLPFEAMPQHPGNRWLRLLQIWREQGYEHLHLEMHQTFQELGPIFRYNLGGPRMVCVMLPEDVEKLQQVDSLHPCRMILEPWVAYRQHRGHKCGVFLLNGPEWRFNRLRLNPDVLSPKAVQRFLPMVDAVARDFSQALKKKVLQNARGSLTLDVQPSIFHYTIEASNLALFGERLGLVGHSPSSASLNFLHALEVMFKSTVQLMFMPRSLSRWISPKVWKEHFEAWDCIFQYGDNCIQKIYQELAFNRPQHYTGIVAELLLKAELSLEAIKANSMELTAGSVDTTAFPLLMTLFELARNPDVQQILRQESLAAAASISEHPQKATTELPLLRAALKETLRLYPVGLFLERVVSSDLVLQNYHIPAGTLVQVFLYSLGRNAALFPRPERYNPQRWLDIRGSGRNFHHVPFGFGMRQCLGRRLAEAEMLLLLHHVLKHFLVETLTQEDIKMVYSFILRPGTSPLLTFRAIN
# From the text: Blood and urine samples were collected for determination of the pharmacodynamic parameters related to baxdrostat mechanism of aldosterone suppression. Serum concentrations of aldosterone, aldosterone excreted in 24-hour urine collections, plasma renin activity (PRA) and serum cortisol are summarized by dose and by study day as shown in FIGS. 3A-3D. […] These hormonal data provide strong biochemical evidence to support the mechanism by which baxdrostat's inhibition of aldosterone synthesis produces a significant impact on blood pressure levels without lowering serum cortisol levels.
# [4] = single oral 10 mg [14C] dose, preliminary findings
structure (smiles),measurement,setting,value
"CCC(=O)N[C@@H]1CCCc2c(-c3ccc4c(c3)CCC(=O)N4C)cncc21 [baxdrostat, (R)—N-(4-(1-methyl-2-oxo-1,2,3,4-tetrahydroquinolin-6-yl)-5,6,7,8-tetrahydroisoquinolin-8-yl) propionamide]",mean blood:plasma concentration ratios,[1]; radioactivity,low association of radioactivity with blood cells
same,share of total systemic exposure by AUC0-inf in plasma,[1]; single oral 10 mg [14C] dose,71%
same,unchanged baxdrostat in feces,[1]; single oral 10 mg [14C] dose,6.1 % of the dose
same,unchanged baxdrostat in urine,[1]; single oral 10 mg [14C] dose,16.8 % of the dose
same,mean excretion of radioactivity in feces,[1]; [4],15.3 % of the dose
same,mean excretion of radioactivity in urine,[1]; [4],69.4 % of the dose
same,"DBP, LS mean change (SE)","[2]; 0.5 mg QD, 12 weeks",−8.6 (1.23) mmHg
same,"DBP, LS mean difference vs placebo (SE)","[2]; 0.5 mg QD, 12 weeks",0.5 (1.74) mmHg
same,"SBP, LS mean difference vs placebo (SE)","[2]; 0.5 mg QD, 12 weeks",−2.7 (2.68) mmHg
same,"SBP, LS mean change (SE)","[2]; 0.5 mg QD, 12 weeks, mITT",−12.1 (1.91) mmHg
same,treatment effect on SBP vs placebo,"[2]; 0.5 mg, 12 weeks","modestly greater than that of placebo, but this difference did not reach statistical significance"
same,DBP decrease,[2]; 0.5 mg,8.6 mmHg
same,"DBP, LS mean change (SE)","[2]; 1 mg QD, 12 weeks",−11.8 (1.26) mmHg
same,"DBP, LS mean difference vs placebo (SE)","[2]; 1 mg QD, 12 weeks",−2.7 (1.75) mmHg
same,"SBP, LS mean difference vs placebo (SE)","[2]; 1 mg QD, 12 weeks",−8.1 (2.7) mmHg and −8.1 (2.72) mmHg
same,"SBP, LS mean change (SE)","[2]; 1 mg QD, 12 weeks, mITT",−17.5 (1.95) mmHg
same,placebo-adjusted SBP decline,"[2]; 1 mg, 12 weeks",8.1 mmHg
same,DBP decrease,[2]; 1 mg,11.8 mmHg
same,"DBP, LS mean change (SE)","[2]; 2 mg QD, 12 weeks",−14.3 (1.31) mmHg
same,"DBP, LS mean difference vs placebo (SE)","[2]; 2 mg QD, 12 weeks",−5.2 (1.79) mmHg
same,"SBP, LS mean difference vs placebo (SE)","[2]; 2 mg QD, 12 weeks",−11.0 (2.78) mmHg
same,"SBP, LS mean change (SE)","[2]; 2 mg QD, 12 weeks, mITT",−20.3 (2.05) mmHg
same,DBP lowered compared to the placebo group,"[2]; 2 mg, 12 weeks",5.2 mmHg
same,"model adjusted, placebo-corrected decline in SBP","[2]; 2 mg, 12 weeks",11.0 mmHg
same,reduction in SBP,"[2]; 2 mg, 12 weeks",20.3 mmHg
same,DBP decrease,[2]; 2 mg,14.3 mmHg
same,model adjusted and placebo-corrected change from baseline in SBP,"[2]; 2 mg, intent to treat (ITT) analysis set",−11 mmHg
same,model adjusted and placebo-corrected change from baseline in SBP,"[2]; 2 mg, per protocol analysis set",−11.1 mmHg
same,time course of SBP decrease,[2]; 12 weeks of treatment,rapid after treatment started and sustained throughout the 12 weeks of treatment
same,"SBP, LS mean change (SE)","[2]; Female, 0.5 mg",−10.2 (2.77)
same,"SBP, LS mean difference (SE)","[2]; Female, 0.5 mg vs placebo",5.1 (4.12)
same,"SBP, LS mean change (SE)","[2]; Female, 1 mg",−17.8 (2.74)
same,"SBP, LS mean difference (SE)","[2]; Female, 1 mg vs placebo",−2.5 (4.09)
same,"SBP, LS mean change (SE)","[2]; Female, 2 mg",−18.2 (3.01)
same,"SBP, LS mean difference (SE)","[2]; Female, 2 mg vs placebo",−2.9 (4.27)
same,"SBP, LS mean change (SE)","[2]; Hispanic/Latino Female, 0.5 mg",−15.9 (4.27)
same,"SBP, LS mean difference (SE)","[2]; Hispanic/Latino Female, 0.5 mg vs placebo",2.2 (5.93)
same,"SBP, LS mean change (SE)","[2]; Hispanic/Latino Female, 1 mg",−11.5 (4.80)
same,"SBP, LS mean difference (SE)","[2]; Hispanic/Latino Female, 1 mg vs placebo",6.6 (6.33)
same,"SBP, LS mean change (SE)","[2]; Hispanic/Latino Female, 2 mg",−19.4 (3.59)
same,"SBP, LS mean difference (SE)","[2]; Hispanic/Latino Female, 2 mg vs placebo",−1.3 (5.46)
same,"SBP, LS mean change (SE)","[2]; Hispanic/Latino, 0.5 mg",−13.3 (2.72)
same,"SBP, LS mean difference (SE)","[2]; Hispanic/Latino, 0.5 mg vs placebo",−1.9 (3.94)
same,"SBP, LS mean change (SE)","[2]; Hispanic/Latino, 1 mg",−16.7 (3.43)
same,"SBP, LS mean difference (SE)","[2]; Hispanic/Latino, 1 mg vs placebo",−5.4 (4.46)
same,"SBP, LS mean change (SE)","[2]; Hispanic/Latino, 2 mg",−21.8 (2.95)
same,"SBP, LS mean difference (SE)","[2]; Hispanic/Latino, 2 mg vs placebo",−10.5 (4.10)
same,"SBP, LS mean change (SE)","[2]; Male, 0.5 mg",−13.7 (2.59)
same,"SBP, LS mean difference (SE)","[2]; Male, 0.5 mg vs placebo",−8.0 (3.53)
same,"SBP, LS mean change (SE)","[2]; Male, 1 mg",−17.4 (2.76)
same,"SBP, LS mean difference (SE)","[2]; Male, 1 mg vs placebo",−11.7 (3.66)
same,"SBP, LS mean change (SE)","[2]; Male, 2 mg",−22.4 (2.73)
same,"SBP, LS mean difference (SE)","[2]; Male, 2 mg vs placebo",−16.4 (3.63)
same,"SBP, LS mean change (SE)","[2]; Not Hispanic/Latino, 0.5 mg",−10.9 (2.72)
same,"SBP, LS mean difference (SE)","[2]; Not Hispanic/Latino, 0.5 mg vs placebo",−3.1 (3.75)
same,"SBP, LS mean change (SE)","[2]; Not Hispanic/Latino, 1 mg",−17.9 (2.41)
same,"SBP, LS mean difference (SE)","[2]; Not Hispanic/Latino, 1 mg vs placebo",−10.0 (3.52)
same,"SBP, LS mean change (SE)","[2]; Not Hispanic/Latino, 2 mg",−19.2 (2.86)
same,"SBP, LS mean difference (SE)","[2]; Not Hispanic/Latino, 2 mg vs placebo",−11.4 (3.84)
same,"SBP, LS mean change (SE)","[2]; Other (not Hispanic/Latino Female), 0.5 mg",−11.1 (2.11)
same,"SBP, LS mean difference (SE)","[2]; Other (not Hispanic/Latino Female), 0.5 mg vs placebo",−4.0 (2.99)
same,"SBP, LS mean change (SE)","[2]; Other (not Hispanic/Latino Female), 1 mg",−18.7 (2.13)
same,"SBP, LS mean difference (SE)","[2]; Other (not Hispanic/Latino Female), 1 mg vs placebo",−11.6 (3.00)
same,"SBP, LS mean change (SE)","[2]; Other (not Hispanic/Latino Female), 2 mg",−20.9 (2.45)
same,"SBP, LS mean difference (SE)","[2]; Other (not Hispanic/Latino Female), 2 mg vs placebo",−13.8 (3.24)
same,systolic and diastolic blood pressure,"[2]; patients with resistant hypertension, FIGS. 10A and 10B",dose-dependent decreases
same,SBP reduction by subgroup,"[2]; subgroup analyses, baseline to Day 85","greater reduction in SBP if they were male, white, not Hispanic or Latino, higher eGFR, and baseline SBP value of ≥145 mmHg"
same,urinary aldosterone excretion,[3]; 24-hour urine,significantly reduced urinary aldosterone excretion
same,"suppression of aldosterone and augmentation of renin activity, male vs female patients",[3]; in vivo,comparable between male and female patients
same,plasma renin activity (PRA),[3]; rHTN patients,increased PRA several-fold
same,total serum cortisol,[3]; rHTN patients,no reduction in total serum cortisol
